Among the data in patent publication US11197865B2, “Applications for promethazine in preparing anti-liver cancer and/or colon cancer and/or lung cancer products” (SHANGHAI JIAO TONG UNIVERSITY, priority 2015, dated 2021) are IC50 and EC50 values, retold here.

Holding throughout (format): cell-based
The test system of assay [1] is SKOV-3 human ovarian cancer cells. As to the kind of experiment: CellTiter-Glo luminescent cell viability assay, SKOV-3 ovarian cancer cells. As to conditions: SK-OV-3, SKOV-3 cells, 72 hours. Background: ATP-based viability assays read luminescence as a measure of living cells.
Assay [2] concerns NCI-H2141 lung cancer cells. As to the kind of experiment: CellTiter-Glo luminescent cell viability assay, NCI-H2141 lung cancer cells. As to conditions: 72 hours.
The test system of assay [3] is NCI-H661 large-cell lung cancer cells. As to the kind of experiment: CellTiter-Glo luminescent cell viability assay, NCI-H661 large-cell lung cancer cells. As to conditions: Homo sapiens, 72 hours.
In assay [4] the test system is HUH-7 liver cancer cells. As to the kind of experiment: CellTiter-Glo luminescent cell viability assay, HUH-7 liver cancer cells. The following applies: Homo sapiens, 72 hours. The source says: (§1) In example 1, CELLTITER-GLO was used to test promethazine against liver cancer and/or colon cancer. n) HUH-7 cells and LoVo cells were handled as described above, and HUH-7 96-well cell culture plates and LoVo 96-well cell culture plates were obtained, respectively. The complete medium for HUH-7 cells was DMEM (a live product), Cat #11995081, with a cells/well density of 6000. 2. […] The final concentrations (μM) of the analyte drug in wells 2-10 in FIG. 1 are, in order: 100, 31.64557, 10.01442, 3.16912, 1.002886, 0.317369, 0.100433, 0.031783, 0.010058; B. CELLTITER-GLO Luminescent Cell Viability Assay System a) Before testing, the HUH-7 96-well drug screening plate and the LoVo 96-well drug screening plate described in 3 above were stabilized to room temperature for 20-30 minutes. c) 100 μl of CellTiter-Glo reagent (prepared as described in 1 above) was added to all drug screening plates and mixed evenly. d) It was thoroughly oscillated in a 96-well microplate oscillator for 2 minutes to allow the cells to undergo full lysis. e) It was stored away from light at room temperature for 15 minutes before carrying out luminescent signal detection to ensure signal stability. f) An EnSpire multi-function plate reader was used at 570 nm to read the luminescent signals. g) Data was processed and analyzed.

Assay [5] deals with LoVo colon cancer cells. As to the kind of experiment: CellTiter-Glo luminescent cell viability assay, LoVo colon cancer cells. The following applies: Homo sapiens, 72 hours.
Description: as §1, with “for LoVo” for “for HUH-7”, “of 8000.” for “of 6000.”

As to `CC(CN1c2ccccc2Sc2ccccc21)N(C)C` (stereo not shown) [promethazine], the IC50 in assay [1] was ≥ 100 µM; in assay [2] (NCI-H2141 cells) it was 34.6 µM; in assay [3], ≥ 100 µM; in assay [4] (HUH-7 cells), 31.4 µM; in assay [5], 33.5 µM. For the same compound, the concentration giving a half-maximal response (EC50) amounted to 33.9 µM in assay [2] (FIG. 4, lung cancer (NCI-H2141)) and 42 µM in assay [4] (FIG. 2, liver cancer (HUH-7)).

What is called IC50 is the point on the concentration scale where inhibition reaches its midpoint. A higher IC50 goes with weaker potency. For orientation: EC50 means the concentration that produces a half-maximal response.
